Consider 20 compounds from US20070155764A1, “NOVEL SUBSTITUTED PYRIMIDINYLOXY UREAS USEFUL AS INHIBITORS OF PROTEIN KINASES” (KALYPSYS, INC., priority 2005, published 2007).

Assay type in all cases: biochemical
For one assay, the target named is T1, VEGFR2 kinase (Homo sapiens, UniProt P35968).
T1 construct: purchased Invitrogen Inc PV3660
As to the kind of experiment: In vitro VEGFR2 kinase assay. The note with it: ADP Quest assay, poly Glu:Tyr substrate, 60 μM ATP. As for the experimental part:
(§1) In vitro vegfr2 and PDGFRβ Kinase Assays
(§2) 2.5 μl of ADP Quest assay buffer (DiscoverX Inc., cat. #90-0071) containing 20 ng VEGFR2 kinase (Invitrogen Inc, cat. #PV3660) or 25 ng PDGFRβ kinase (Invitrogen Inc., cat. #P3082) is dispensed to wells of a 1536 multi-well, black solid plate. 60 nl of 100× concentration of test compound in DMSO is dispensed to the well by passive pin transfer and incubated for 10 minutes at room temperature (approx. 22° C.). 2.5 μl of ADP Quest assay buffer containing 0.25 μg of poly Glu:Tyr (4:1) substrate peptide (Upstate Inc., cat. #12-440) and 60 μM ATP is then dispensed and the kinase reaction allowed to incubate at 30° C. for 2 hours. The assay plates are sealed and maintained in a humidified environment. After the 2 hour incubation, 2 μl of ADP Quest assay reagent A, followed by 2 μl of assay reagent B, is added. After an additional 30 minute incubation at room temperature, fluorescence intensity is measured on a Molecular Devices Aquest multi-mode plate reader or other suitable plate reader (fluorescence excitation filter: 530/25 [Peak (nm)/FWHM passband (nm)]; dichroic beamsplitter: 561 nm longpass; fluorescence emission filter: 580/10 [Peak (nm)/FWHM passband (nm)]. The assay measures the conversion of a non-fluoresecent molecule to fluorescent resorutin, which correlates with kinase activity. Negative control activity is measured with DMSO lacking any test compound. The positive control is [N-(3-trifluoromethyl-4-chlorophenyl)-N′-(4-(2-methylcarbamoyl-pyridin-4-yl)oxyphenyl)urea], aka Bay 43-9006. Efficacy is measured as a percentage of positive control activity.

In another assay the target is T2, PDGFRβ kinase (Homo sapiens, UniProt P09619).
T2 construct: purchased Invitrogen Inc. P3082
T2 sequence (P09619 33-1106): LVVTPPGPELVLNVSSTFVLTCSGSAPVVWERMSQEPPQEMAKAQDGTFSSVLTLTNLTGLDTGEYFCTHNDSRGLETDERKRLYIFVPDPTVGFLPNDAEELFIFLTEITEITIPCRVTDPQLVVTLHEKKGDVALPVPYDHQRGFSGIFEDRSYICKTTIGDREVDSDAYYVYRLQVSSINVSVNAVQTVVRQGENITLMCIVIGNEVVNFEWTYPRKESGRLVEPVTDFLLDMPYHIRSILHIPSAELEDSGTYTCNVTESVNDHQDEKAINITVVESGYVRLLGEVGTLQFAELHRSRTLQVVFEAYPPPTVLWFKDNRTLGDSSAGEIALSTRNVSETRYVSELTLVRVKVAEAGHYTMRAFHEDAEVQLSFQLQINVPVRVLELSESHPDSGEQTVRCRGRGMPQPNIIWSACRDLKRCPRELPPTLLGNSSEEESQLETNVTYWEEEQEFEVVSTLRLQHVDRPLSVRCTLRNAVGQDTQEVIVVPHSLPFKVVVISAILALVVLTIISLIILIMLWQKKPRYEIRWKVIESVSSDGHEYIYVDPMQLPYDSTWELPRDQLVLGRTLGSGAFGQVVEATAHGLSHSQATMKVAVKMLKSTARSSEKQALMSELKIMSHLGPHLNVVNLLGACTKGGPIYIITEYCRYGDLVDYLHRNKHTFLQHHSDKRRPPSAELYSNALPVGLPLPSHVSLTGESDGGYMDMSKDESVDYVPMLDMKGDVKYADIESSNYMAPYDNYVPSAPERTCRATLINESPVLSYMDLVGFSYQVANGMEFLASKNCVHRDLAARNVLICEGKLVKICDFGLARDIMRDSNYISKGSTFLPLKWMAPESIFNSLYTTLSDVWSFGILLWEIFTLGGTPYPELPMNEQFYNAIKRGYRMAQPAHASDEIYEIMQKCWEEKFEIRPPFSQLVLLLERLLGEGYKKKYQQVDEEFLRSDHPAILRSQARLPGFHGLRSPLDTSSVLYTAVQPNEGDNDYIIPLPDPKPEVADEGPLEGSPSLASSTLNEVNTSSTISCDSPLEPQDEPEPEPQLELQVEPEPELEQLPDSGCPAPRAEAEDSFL
Nature of the assay: In vitro PDGFRβ kinase assay. The note with it: ADP Quest assay, poly Glu:Tyr substrate, 60 μM ATP. How it is done:
as §1, §2

The target of assay [1] is T3, human B-Raf protein kinase (Homo sapiens, UniProt P15056).
T3 construct: GST (N); purchased Upstate Inc. 14-530 (B-Raf); 14-420 (Mek1)
T3 sequence (P15056 416-766): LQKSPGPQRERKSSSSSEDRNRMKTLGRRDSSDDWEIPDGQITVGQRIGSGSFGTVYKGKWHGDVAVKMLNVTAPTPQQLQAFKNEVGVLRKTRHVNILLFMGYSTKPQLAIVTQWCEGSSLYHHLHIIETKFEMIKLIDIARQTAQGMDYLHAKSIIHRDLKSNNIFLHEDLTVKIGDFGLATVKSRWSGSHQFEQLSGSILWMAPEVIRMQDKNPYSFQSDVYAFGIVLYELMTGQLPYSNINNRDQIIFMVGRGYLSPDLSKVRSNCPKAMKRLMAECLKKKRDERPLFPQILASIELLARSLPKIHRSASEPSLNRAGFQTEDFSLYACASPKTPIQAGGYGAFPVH
As to the kind of experiment: In vitro B-Raf/Mek1 composite kinase assay. The note with it: recombinant GST-tagged human B-Raf (Δ1-415) with inactive Mek1, 2 μM ATP. How it is done:
In Vitro B-Raf/Mek1 Composite Kinase Assay
2.5 μl of B-Raf kinase buffer (20 mM MOPS [pH 7.2], 25 mM sodium glycerophosphate, 2 mM EGTA [pH 8.0], 1 mM sodium orthovanadate, 1 mM dithiothreitol, 10 mM MgCl2, 0.03% Brij-35, 0.3 mg/ml bovine serum albumin) containing 1 ng of recombinant, N-terminal GST-tagged human B-Raf protein kinase (Δ1-415, Upstate Inc., cat. #14-530) is dispensed to wells of a 1536 multi-well white solid plate. 60 nl of 100× concentration of test compound in DMSO is dispensed to the well by passive pin transfer and incubated for 15 minutes at room temperature (approx. 22° C.). […] The assay plates are sealed and maintained in a humidified environment. After 2 hours, 2.5 μl of PKLight protein kinase assay reagent (Cambrex, cat. #LT07-501) is dispensed. After an additional 5 minute incubation at room temperature, luminescence activity is measured on a Molecular Devices Analyst multi-mode plate reader or other suitable plate reader. Kinase inhibition results in less ATP depletion, and therefore increased luminescence signal. Negative control activity is measured with DMSO lacking any test compound. The positive control is [N-(3-trifluoromethyl-4-chlorophenyl)-N′-(4-(2-methylcarbamoyl-pyridin-4-yl)oxyphenyl)urea], aka Bay 43-9006. Efficacy is measured as a percentage of positive control activity.

T1 sequence (P35968 20-1356): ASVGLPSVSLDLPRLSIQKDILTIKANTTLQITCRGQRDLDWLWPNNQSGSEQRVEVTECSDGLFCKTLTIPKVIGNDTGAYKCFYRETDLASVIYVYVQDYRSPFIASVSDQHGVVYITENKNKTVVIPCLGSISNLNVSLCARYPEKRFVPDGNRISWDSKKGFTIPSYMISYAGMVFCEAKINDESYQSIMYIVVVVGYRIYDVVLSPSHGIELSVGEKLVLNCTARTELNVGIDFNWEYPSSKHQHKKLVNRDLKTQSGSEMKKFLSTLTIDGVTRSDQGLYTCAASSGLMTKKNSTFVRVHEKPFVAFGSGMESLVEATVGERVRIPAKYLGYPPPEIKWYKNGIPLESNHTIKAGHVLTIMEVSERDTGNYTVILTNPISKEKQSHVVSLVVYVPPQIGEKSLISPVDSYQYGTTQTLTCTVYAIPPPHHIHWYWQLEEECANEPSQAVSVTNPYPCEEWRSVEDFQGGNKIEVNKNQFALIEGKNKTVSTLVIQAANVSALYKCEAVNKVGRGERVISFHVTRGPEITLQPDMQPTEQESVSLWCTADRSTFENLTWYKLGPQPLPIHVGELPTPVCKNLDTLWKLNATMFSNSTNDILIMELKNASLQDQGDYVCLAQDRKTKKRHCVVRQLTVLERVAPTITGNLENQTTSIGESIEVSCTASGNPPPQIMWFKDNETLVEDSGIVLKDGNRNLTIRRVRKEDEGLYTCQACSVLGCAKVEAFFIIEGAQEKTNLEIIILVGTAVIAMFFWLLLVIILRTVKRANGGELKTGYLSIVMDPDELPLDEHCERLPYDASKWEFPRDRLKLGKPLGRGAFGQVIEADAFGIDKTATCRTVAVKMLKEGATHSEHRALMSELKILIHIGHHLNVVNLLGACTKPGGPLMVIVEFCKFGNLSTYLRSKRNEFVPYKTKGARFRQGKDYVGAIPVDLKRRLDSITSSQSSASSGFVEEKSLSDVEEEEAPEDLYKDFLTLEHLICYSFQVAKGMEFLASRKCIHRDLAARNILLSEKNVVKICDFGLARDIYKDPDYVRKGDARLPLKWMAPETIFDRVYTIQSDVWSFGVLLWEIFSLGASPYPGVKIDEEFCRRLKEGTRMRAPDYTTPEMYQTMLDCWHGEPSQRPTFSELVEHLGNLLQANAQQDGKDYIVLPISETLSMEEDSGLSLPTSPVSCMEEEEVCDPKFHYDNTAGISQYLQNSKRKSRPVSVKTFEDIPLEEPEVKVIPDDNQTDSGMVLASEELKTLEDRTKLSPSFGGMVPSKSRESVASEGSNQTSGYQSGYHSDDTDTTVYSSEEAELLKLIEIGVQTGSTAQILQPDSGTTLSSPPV

The IC50 is the concentration that inhibits the measured activity by half. Consider `O=C(Nc1ccc(Oc2cc(-n3cncn3)ncn2)cc1)Nc1ccc(Cl)c(C(F)(F)F)c1` [Example 1, 1-(4-Chloro-3-trifluoromethyl-phenyl)-3-[4-(6-[1,2,4]triazol-1-yl-pyrimidin-4-yloxy)-phenyl]-urea], for which the IC50 (on VEGFR2 kinase; at PDGFRβ kinase; in assay [1]) was not above 10 µM in each case.
In the case of `O=C(Nc1ccc(Oc2ccnc(-n3cncn3)n2)cc1)Nc1ccc(Cl)c(C(F)(F)F)c1` [Example 2, 1-(4-Chloro-3-trifluoromethyl-phenyl)-3-[4-(2-[1,2,4]triazol-1-yl-pyrimidin-4-yloxy)-phenyl]-urea], the IC50 (at VEGFR2 kinase; at PDGFRβ kinase; in assay [1]) was more than 10 µM in each case.
For the compound `O=C(Nc1ccc(Oc2cc(-c3ncon3)ncn2)cc1)Nc1ccc(Cl)c(C(F)(F)F)c1` [Example 3, 1-(4-Chloro-3-trifluoromethyl-phenyl)-3-[4-(6-[1,2,4]oxadiazol-3-yl-pyrimidin-4-yloxy)-phenyl]-urea], the IC50 is not above 10 µM at VEGFR2 kinase, not above 10 µM against PDGFRβ kinase and more than 10 µM in assay [1].
On to `COc1cc(CNC(=O)Nc2cccc(Oc3ccnc(-c4nnco4)c3)c2)cc(OC)c1OC` [Example 5, 1-[3-(2-[1,3,4]Oxadiazol-2-yl-pyridin-4-yloxy)-phenyl]-3-(3,4,5-trimethoxybenzyl)-urea], for which the results for the IC50 (on VEGFR2 kinase; at PDGFRβ kinase; in assay [1]) were not above 10 µM, more than 10 µM and not above 10 µM, respectively.
Turning to `Cc1cc(Oc2ccc(NC(=O)Nc3ccc(Cl)c(C(F)(F)F)c3)cc2)nc(-n2ccnc2)n1` [Example 6, 1-(4-(2-(1H-imidazol-1-yl)-6-methylpyrimidin-4-yloxy)phenyl)-3-(4-chloro-3-(trifluoromethyl)phenyl)urea], the half-inhibitory concentration (IC50) is more than 10 µM on VEGFR2 kinase, more than 10 µM against PDGFRβ kinase and not above 10 µM in assay [1].
In the case of `O=C(Nc1ccc(Oc2ccnc(-c3ncon3)n2)cc1)Nc1ccc(Cl)c(C(F)(F)F)c1` [Example 7, 1-(4-(2-(1,2,4-Oxadiazol-3-yl)pyrimidin-4-yloxy)phenyl)-3-(4-chloro-3-(trifluoromethyl)phenyl)urea], the IC50 in assay [1] is more than 10 µM.
Take `O=C(Nc1ccc(Oc2cc(-c3nnco3)ncn2)cc1)Nc1ccc(Cl)c(C(F)(F)F)c1` [Example 8, 1-(4-(6-(1,3,4-Oxadiazol-2-yl)pyrimidin-4-yloxy)phenyl)-3-(4-chloro-3-(trifluoromethyl)phenyl)urea]: the 50% inhibitory concentration (IC50) (on VEGFR2 kinase; on PDGFRβ kinase; in assay [1]) was not above 10 µM in each case.
Turning to `O=C(Nc1cccc(Oc2cc(-c3nnco3)ncn2)c1)Nc1ccc(Cl)c(C(F)(F)F)c1` [Example 9, 1-(3-(6-(1,3,4-Oxadiazol-2-yl)pyrimidin-4-yloxy)phenyl)-3-(4-chloro-3-(trifluoromethyl)phenyl)urea], the concentration for half-maximal inhibition (IC50) (at VEGFR2 kinase; at PDGFRβ kinase; in assay [1]) was not above 10 µM throughout.
Consider `O=C(Nc1cccc(Oc2cc(-c3ncon3)ncn2)c1)Nc1ccc(Cl)c(C(F)(F)F)c1` [Example 10, 1-(3-(6-(1,2,4-Oxadiazol-3-yl)pyrimidin-4-yloxy)phenyl)-3-(4-chloro-3-(trifluoromethyl)phenyl)urea], for which the IC50 (on VEGFR2 kinase; on PDGFRβ kinase; in assay [1]) was not above 10 µM in each case.
Take `Cc1nnc(-c2cc(Oc3cccc(NC(=O)Nc4ccc(Cl)c(C(F)(F)F)c4)c3)ncn2)o1` [Example 11, 1-(4-Chloro-3-(trifluoromethyl)phenyl)-3-(3-(6-(5-methyl-1,3,4-oxadiazol-2-yl)pyrimidin-4-yloxy)phenyl)urea]: the IC50 (on VEGFR2 kinase; on PDGFRβ kinase; in assay [1]) was not above 10 µM each time.
On to `O=C(Nc1cccc(Oc2ccnc(-c3nnco3)n2)c1)Nc1ccc(Cl)c(C(F)(F)F)c1` [Example 12, 1-(3-(2-(1,3,4-oxadiazol-2-yl)pyrimidin-4-yloxy)phenyl)-3-(4-chloro-3-(trifluoromethyl)phenyl)urea], for which the half-inhibitory concentration (IC50) (on VEGFR2 kinase; at PDGFRβ kinase; in assay [1]) was not above 10 µM throughout.
As for `O=C(Nc1ccc(Oc2cc(-c3ncco3)ncn2)cc1)Nc1ccc(Cl)c(C(F)(F)F)c1` [Example 13, 1-(4-Chloro-3-(trifluoromethyl)phenyl)-3-(4-(6-(oxazol-2-yl)pyrimidin-4-yloxy)phenyl)urea], the IC50 (against VEGFR2 kinase; at PDGFRβ kinase; in assay [1]) was not above 10 µM each time.
`O=C(Nc1cccc(Oc2cc(-c3ncco3)ncn2)c1)Nc1ccc(Cl)c(C(F)(F)F)c1` [Example 14, 1-(4-chloro-3-(trifluoromethyl)phenyl)-3-(3-(6-(oxazol-2-yl)pyrimidin-4-yloxy)phenyl)urea]: the IC50 (against VEGFR2 kinase; against PDGFRβ kinase; in assay [1]) was not above 10 µM throughout.
As to `O=C(Nc1cccc(Oc2cc(-c3ncno3)ncn2)c1)Nc1ccc(Cl)c(C(F)(F)F)c1` [Example 15, 1-(3-(6-(1,2,4-oxadiazol-5-yl)pyrimidin-4-yloxy)phenyl)-3-(4-chloro-3-(trifluoromethyl)phenyl)urea], the IC50 (at VEGFR2 kinase; at PDGFRβ kinase; in assay [1]) was not above 10 µM each time.
As to `Cn1ncnc1-c1cc(Oc2cccc(NC(=O)Nc3ccc(Cl)c(C(F)(F)F)c3)c2)ncn1` [Example 16, 1-(4-Chloro-3-(trifluoromethyl)phenyl)-3-(3-(6-(1-methyl-1H-1,2,4-triazol-5-yl)pyrimidin-4-yloxy)phenyl)urea], the IC50 (on VEGFR2 kinase; against PDGFRβ kinase; in assay [1]) was not above 10 µM each time.
Consider `O=C(Nc1cccc(Oc2cc(-c3ncn[nH]3)ncn2)c1)Nc1ccc(Cl)c(C(F)(F)F)c1` [Example 17, 1-(3-(6-(1H-1,2,4-Triazol-5-yl)pyrimidin-4-yloxy)phenyl)-3-(4-chloro-3-(trifluoromethyl)phenyl)urea], for which the half-inhibitory concentration (IC50) (at VEGFR2 kinase; against PDGFRβ kinase; in assay [1]) was not above 10 µM throughout.
`O=C(Nc1ccc(Oc2cc(-c3ncno3)ncn2)cc1)Nc1ccc(Cl)c(C(F)(F)F)c1` [Example 18, 1-(4-(6-(1,2,4-Oxadiazol-5-yl)pyrimidin-4-yloxy)phenyl)-3-(4-chloro-3-(trifluoromethyl)phenyl)urea]: the values for the IC50 (at VEGFR2 kinase; on PDGFRβ kinase; in assay [1]) were not above 10 µM, not above 10 µM and more than 10 µM, respectively.
Take `O=C(Nc1cccc(Oc2cc(-c3nnn[nH]3)ncn2)c1)Nc1ccc(Cl)c(C(F)(F)F)c1` [Example 19, 1-(3-(6-(1H-Tetrazol-5-yl)pyrimidin-4-yloxy)phenyl)-3-(4-chloro-3-(trifluoromethyl)phenyl)urea]: the IC50 was not above 10 µM on VEGFR2 kinase, not above 10 µM against PDGFRβ kinase and more than 10 µM in assay [1].
On to `Cn1nnc(-c2cc(Oc3cccc(NC(=O)Nc4ccc(Cl)c(C(F)(F)F)c4)c3)ncn2)n1` [Example 20, 1-(4-Chloro-3-(trifluoromethyl)phenyl)-3-(3-(6-(2-methyl-2H-tetrazol-5-yl)pyrimidin-4-yloxy)phenyl)urea], for which the IC50 (on VEGFR2 kinase; at PDGFRβ kinase; in assay [1]) was not above 10 µM each time.
As to `NC(=O)Cn1cc(-c2cc(Oc3cccc(NC(=O)Nc4ccc(Cl)c(C(F)(F)F)c4)c3)ncn2)cn1` [Example 55, 2-(4-(6-(3-(3-(4-Chloro-3-(trifluoromethyl)phenyl)ureido)phenoxy)pyrimidin-4-yl)-1H-pyrazol-1-yl)acetamide], the half-inhibitory concentration (IC50) (at VEGFR2 kinase; in assay [1]) was not above 10 µM throughout.
